The source of these data is ChEMBL document CHEMBL3507680, “University of Dundee, Gates Library screen for HepG2 cell viability”.

The data set can be described thus: Human HepG2 cell viability assay in 384 well format. Type of data set: toxicity, cell-based. Further details: dose 125 nL, time 70.5 hour; cytotoxicity at 70.5 h: concentration not given beside the values. The conditions noted are these: HepG2 cells, read-out: Inhibition.
On to `O=C(CN1CCOCC1)N(c1ccccc1)c1ccccc1`, for which the cytotoxicity at 70.5 h is -11.2%.

As to `CNCc1cn(C2CCN(CCC(C)c3ccccc3)CC2)nn1` (centres undefined), the cytotoxicity at 70.5 h came to 21.7%.

In the case of `Cn1ncc2c(N3CC[C@H](O)C3)nc(-c3ccncc3)nc21`, the cytotoxicity at 70.5 h is -15.7%.

With `O=C(CC[C@@H]1CCCN2CCCC[C@H]12)NCCc1nc(O)cc(O)n1`, the cytotoxicity at 70.5 h was -5.7%.

In the case of `CC(Nc1ncnc2c1CCNC2)c1ccc2c(c1)CCCC2` (centres undefined), the cytotoxicity at 70.5 h is -2.47%.

Consider `CCCn1nc(C)c(CNS(=O)(=O)NCc2ccccc2)c1C`, for which the cytotoxicity at 70.5 h is -12.7%.

For the compound `CC(C)CCN1CC2(CCCN(C(=O)NCc3cccs3)C2)CCC1=O` (centres undefined), the cytotoxicity at 70.5 h is -2.43%.

Turning to `COc1ccc(OCCCN(C)C(=O)C2CCCN2C(N)=O)cc1` (centres undefined), the cytotoxicity at 70.5 h was -3.9%.

Consider `COc1cccc(OC2CN(C(=O)CCn3cnnn3)C2)c1`, for which the cytotoxicity at 70.5 h is -10.5%.

For the compound `CC1CCCCN1C1CN(c2ccnc(C(=O)NCc3ccco3)c2)C1` (centres undefined), the cytotoxicity at 70.5 h was -15.4%.

Regarding `CCCn1c(C)c(CC(=O)NCC(N)=O)c2c1CC(C)(C)CC2=O`, the cytotoxicity at 70.5 h is 0.554%.

For `O=C(Cc1c[nH]c(=O)[nH]c1=O)N1CCCCC1CCc1cccc(O)c1` (centres undefined), the cytotoxicity at 70.5 h is -5.29%.

Take `CCCN(Cc1cnc2ccccc2n1)Cc1ccccc1OC`: the cytotoxicity at 70.5 h was -7.09%.

`COc1ccc(S(=O)(=O)N[C@H]2CN(C(C)=O)C[C@@H]2C2CC2)cc1C`: the cytotoxicity at 70.5 h was -14.2%.

In the case of `COc1ccc(-c2nc3c([nH]2)CCNC3)c(OC)c1OC`, the cytotoxicity at 70.5 h amounted to 1.85%.

In the case of `Cc1cc(CN(C)C(=O)CN2CC3(CCNCC3)OC2=O)no1`, the cytotoxicity at 70.5 h was -15.9%.

Turning to `CCOCCCNCc1cc(O)c2cc(C)ccc2n1`, the cytotoxicity at 70.5 h was 22.7%.

As for `CC(C)c1cc(NC2CCN(C(=O)N3CCCC3)CC2)ncn1`, the cytotoxicity at 70.5 h came to 12.6%.

Regarding `O=C(NCCc1c[nH]cn1)C1CCCN(Cc2ccco2)C1` (centres undefined), the cytotoxicity at 70.5 h was -1.6%.

With `CC(Cc1cn(CCc2nnn[nH]2)nn1)c1ccccc1` (centres undefined), the cytotoxicity at 70.5 h was -5.17%.

Take `Cc1ccc(CN(CCCO)Cc2nc3ccccc3[nH]2)s1`: the cytotoxicity at 70.5 h is -3.29%.

As to `CC(=O)c1ccc(C(=O)N2C[C@@H](CN3CCCC3)[C@@H](CO)C2)cc1`, the cytotoxicity at 70.5 h turned out to be 12.4%.

As to `CCc1cc(CN(C)Cc2nc(-c3sccc3C)oc2C)on1`, the cytotoxicity at 70.5 h is -9.39%.

As to `CC(C(=O)N1CCC(c2[nH]ncc2-c2ccccc2)CC1)n1cncn1` (centres undefined), the cytotoxicity at 70.5 h was -9.13%.

`O=C1CCC2(CCCO2)CCN1Cc1noc(C2CCCC2)n1` (centres undefined): the cytotoxicity at 70.5 h worked out at 0.738%.

Turning to `CN1CC(c2ccccc2)CC2(CCN(C(=O)c3cccnn3)CC2)C1` (centres undefined), the cytotoxicity at 70.5 h is -4.99%.

On to `C[C@H](NC(=O)C1(N(C)Cc2ccccc2)Cc2ccccc2C1)C(N)=O`, for which the cytotoxicity at 70.5 h is -2.36%.

As to `Cc1ccccc1CN1CCN(C(=O)c2cnc(C3CC3)[nH]c2=O)CC1`, the cytotoxicity at 70.5 h is 7.92%.

Take `CSc1ccc(CN(CCO)C(=O)CCOc2ccccc2)cc1`: the cytotoxicity at 70.5 h is -7.56%.

Regarding `O=C1N(CCCc2ccccc2)CCCC12CCN(C(CO)CO)C2` (centres undefined), the cytotoxicity at 70.5 h was -4.16%.

On to `Cc1nonc1OCCNc1ncnc2sc3c(c12)CCNC3`, for which the cytotoxicity at 70.5 h is -3.76%.

As for `CC(C)=CCN1CC2(CCN(Cc3cccc(C#N)c3)CC2)CC1=O`, the cytotoxicity at 70.5 h was found to be 8.66%.

On to `Cc1cc(C)n(-c2ccc(C(=O)NCC(CO)Cc3ccco3)cc2)n1` (centres undefined), for which the cytotoxicity at 70.5 h was -7.33%.

As to `CN1CCN(Cc2nc3c(s2)CCCC3)[C@H]2CS(=O)(=O)C[C@H]21`, the cytotoxicity at 70.5 h is 1.26%.

For `O=c1[nH]c(COc2cccc(F)c2)nc2c1CCNC2`, the cytotoxicity at 70.5 h was -17%.

Regarding `O=C(N[C@@H]1CCN(Cc2cc3ccccc3s2)C[C@H]1O)c1cccnc1`, the cytotoxicity at 70.5 h was -3.4%.

`CN(C)S(=O)(=O)NCc1cccnc1Oc1ccccc1`: the cytotoxicity at 70.5 h was -6.53%.

With `c1ccc(CN2CCC(CNc3ncnc4c3CCNCC4)CC2)cc1`, the cytotoxicity at 70.5 h came out at 0.757%.

Take `CN(C)CCCN1CC2(CCN(C(=O)C3(C)CCCCO3)CC2)OC1=O` (centres undefined): the cytotoxicity at 70.5 h was 17.7%.
